Legend:
[1] = system: N-methyl-D-aspartate (NMDA) receptor; conditions: at higher concentrations; cited from earlier work
mGluR4 = mGluR4 (Homo sapiens, UniProt Q14833); conditions: cited from earlier work
marble burying in mice = conditions: cited from earlier work
cytochrome P450 1A2 = biological target: T1, cytochrome P450 1A2 (Homo sapiens, UniProt P05177); conditions: cited from earlier work
T1 sequence (P05177 1-516): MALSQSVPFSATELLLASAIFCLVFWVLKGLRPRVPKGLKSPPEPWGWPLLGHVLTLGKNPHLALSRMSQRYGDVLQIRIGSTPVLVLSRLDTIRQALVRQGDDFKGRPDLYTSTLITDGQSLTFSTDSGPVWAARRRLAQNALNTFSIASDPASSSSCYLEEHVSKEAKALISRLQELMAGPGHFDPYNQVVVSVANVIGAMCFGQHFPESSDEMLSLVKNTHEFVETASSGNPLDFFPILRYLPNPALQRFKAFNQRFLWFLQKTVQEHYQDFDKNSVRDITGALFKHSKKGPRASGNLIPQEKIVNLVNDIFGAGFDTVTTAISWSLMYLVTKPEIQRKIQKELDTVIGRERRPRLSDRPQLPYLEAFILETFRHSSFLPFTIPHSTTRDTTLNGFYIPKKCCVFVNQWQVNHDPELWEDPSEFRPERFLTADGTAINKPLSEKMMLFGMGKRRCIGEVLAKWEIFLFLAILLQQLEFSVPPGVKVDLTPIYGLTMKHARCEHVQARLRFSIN

[2] = intravenous administration to rhesus monkeys; cited from earlier work
rat mGluR5 = biological target: T2, rat mGluR5 (Rattus norvegicus, UniProt P31424); experiment: mGluR5 calcium flux assay in HEK 293A cells, negative allosteric modulation of glutamate EC80 response; type: cell-based; conditions: HEK cells transfected with rat mGluR5; glutamate EC80; ± is standard error of at least three experiments
T2 construct: expressed in transfected cells
Experimental: HEK 293A cells stably expressing either rat or human mGluR5 were plated in black-walled, clear-bottomed, poly-D-lysine coated 384-well plates in 20 μL of assay medium (DMEM containing 10% dialyzed FBS, 20 mM HEPES, 100 units/mL penicillin/streptomycin plus 250 ng/mL Fungizone, and 1 mM sodium pyruvate) at a density of 20K cells/well. The cells were grown overnight at 37° C. in the presence of 5% CO2. The next day, medium was removed and the cells incubated with 20 μL of 2.3 µM Fluo-4, AM prepared as a 2.3 mM stock in DMSO and mixed in a 1:1 ratio with 10% (w/v) pluronic acid F-127 and diluted in assay buffer (Hank's balanced salt solution, 20 mM HEPES, and 2.5 mM probenecid) for 45 minutes at 37° C. Dye was removed, 20 μL of assay buffer was added, and the plate was incubated for 5 minutes at room temperature.
Ca^2+ flux was measured using the Functional Drug Screening System (FDSS7000, Hamamatsu, Japan). After establishment of a fluorescence baseline for about 3 seconds, the compounds of the present invention were added to the cells, and the response in cells was measured. 2.3 minutes later an EC20 concentration of the mGluR5 receptor agonist glutamate was added to the cells, and the response of the cells was measured for 1.9 minutes; an EC80 concentration of agonist was added and readings taken for an additional 1.7 minutes. All test compounds were dissolved and diluted to a concentration of 10 mM in 100% DMSO. Compounds were then serially diluted 1:3 in DMSO into 10 point concentration response curves, transferred to daughter plates, and further diluted into assay buffer to a 2× stock. Calcium fluorescence measures were recorded as fold over basal fluorescence; raw data was then normalized to the maximal response to glutamate. Antagonism of the agonist response of the mGluR5 receptor in the present invention was observed as a decrease in response to nearly maximal concentrations of glutamate in the presence of compound compared to the response to glutamate in the absence of compound.
The raw data file containing all time points was used as the data source in the analysis template. This was saved by the FDSS as a tab-delimited text file. Data were normalized using a static ratio function (F/F0) for each measurement of the total 360 values per well divided by each well's initial value. Data were then reduced to peak amplitudes (Max−Initial Min) using a time range that starts approximately 3 seconds prior to the glutamate EC20/EC80 addition and continues for approximately 90-120 seconds. This is sufficient time to capture the peak amplitude of the cellular calcium response. Individual amplitudes were expressed as % EMax by multiplying each amplitude by 100 and then dividing the product by the mean of the amplitudes derived from the glutamate ECMax-treated wells. IC50 values for test compounds were generated by fitting the normalized values versus the log of the test compound concentration (in mol/L) using a 4 parameter logistic equation where none of the parameters were fixed. Each of the three values collected at each concentration of test compound were weighted evenly.
For NAMs with a CRC that plateaus above 10% Glu Max, the IC50 values are reported, the compound is designated a “partial NAM” and the % Glu Max is reported. […] Compounds without measurable activity are designated as “>30,000 nM” since the top concentration of compound tested in the assay is 30 µM. Exemplary data are provided in Tables 1 and 2 below.
Table 1 below lists specific compounds, experimentally determined molecular mass, and mGluR5 activity determined in a cell-based assay. The mGluR5 activity was determined using the metabotropic glutamate receptor activity assays in human embryonic kidney cells as described herein, wherein the human embryonic kidney cells were transfected with rat mGluR5. The mGluR5 activity data for some compounds are shown as the average of at least three experiments with the standard error in these cases. […]

T2 sequence (P31424 21-1203): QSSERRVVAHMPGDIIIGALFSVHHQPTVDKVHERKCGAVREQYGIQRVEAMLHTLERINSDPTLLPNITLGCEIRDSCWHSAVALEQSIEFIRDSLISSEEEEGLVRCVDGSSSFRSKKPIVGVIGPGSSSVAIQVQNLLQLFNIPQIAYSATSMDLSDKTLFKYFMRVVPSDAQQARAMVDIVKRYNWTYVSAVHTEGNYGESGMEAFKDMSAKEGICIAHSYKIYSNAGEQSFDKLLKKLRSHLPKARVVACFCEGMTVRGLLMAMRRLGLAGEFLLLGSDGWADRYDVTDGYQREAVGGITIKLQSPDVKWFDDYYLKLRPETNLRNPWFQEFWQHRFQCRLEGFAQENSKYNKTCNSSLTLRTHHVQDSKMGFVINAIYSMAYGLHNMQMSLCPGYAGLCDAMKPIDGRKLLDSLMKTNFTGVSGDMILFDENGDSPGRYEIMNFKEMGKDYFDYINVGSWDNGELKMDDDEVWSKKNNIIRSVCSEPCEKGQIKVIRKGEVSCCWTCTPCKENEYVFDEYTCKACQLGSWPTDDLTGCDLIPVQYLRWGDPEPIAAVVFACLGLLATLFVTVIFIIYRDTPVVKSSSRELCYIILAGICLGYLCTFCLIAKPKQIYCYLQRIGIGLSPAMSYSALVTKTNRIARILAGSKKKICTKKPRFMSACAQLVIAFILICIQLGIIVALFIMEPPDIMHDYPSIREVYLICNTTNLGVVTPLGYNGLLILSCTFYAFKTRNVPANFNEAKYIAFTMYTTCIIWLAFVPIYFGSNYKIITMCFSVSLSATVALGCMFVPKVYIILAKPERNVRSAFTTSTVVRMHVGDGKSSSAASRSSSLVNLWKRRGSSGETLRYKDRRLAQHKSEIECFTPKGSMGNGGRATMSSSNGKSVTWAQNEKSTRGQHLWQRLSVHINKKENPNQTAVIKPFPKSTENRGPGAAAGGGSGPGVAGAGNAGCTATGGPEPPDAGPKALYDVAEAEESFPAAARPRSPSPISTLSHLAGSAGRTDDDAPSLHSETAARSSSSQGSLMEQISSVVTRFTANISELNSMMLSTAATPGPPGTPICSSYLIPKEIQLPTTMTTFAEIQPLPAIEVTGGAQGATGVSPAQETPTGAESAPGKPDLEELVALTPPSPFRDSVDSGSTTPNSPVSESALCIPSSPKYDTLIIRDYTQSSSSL
mGluR4, sequence (Q14833 33-912): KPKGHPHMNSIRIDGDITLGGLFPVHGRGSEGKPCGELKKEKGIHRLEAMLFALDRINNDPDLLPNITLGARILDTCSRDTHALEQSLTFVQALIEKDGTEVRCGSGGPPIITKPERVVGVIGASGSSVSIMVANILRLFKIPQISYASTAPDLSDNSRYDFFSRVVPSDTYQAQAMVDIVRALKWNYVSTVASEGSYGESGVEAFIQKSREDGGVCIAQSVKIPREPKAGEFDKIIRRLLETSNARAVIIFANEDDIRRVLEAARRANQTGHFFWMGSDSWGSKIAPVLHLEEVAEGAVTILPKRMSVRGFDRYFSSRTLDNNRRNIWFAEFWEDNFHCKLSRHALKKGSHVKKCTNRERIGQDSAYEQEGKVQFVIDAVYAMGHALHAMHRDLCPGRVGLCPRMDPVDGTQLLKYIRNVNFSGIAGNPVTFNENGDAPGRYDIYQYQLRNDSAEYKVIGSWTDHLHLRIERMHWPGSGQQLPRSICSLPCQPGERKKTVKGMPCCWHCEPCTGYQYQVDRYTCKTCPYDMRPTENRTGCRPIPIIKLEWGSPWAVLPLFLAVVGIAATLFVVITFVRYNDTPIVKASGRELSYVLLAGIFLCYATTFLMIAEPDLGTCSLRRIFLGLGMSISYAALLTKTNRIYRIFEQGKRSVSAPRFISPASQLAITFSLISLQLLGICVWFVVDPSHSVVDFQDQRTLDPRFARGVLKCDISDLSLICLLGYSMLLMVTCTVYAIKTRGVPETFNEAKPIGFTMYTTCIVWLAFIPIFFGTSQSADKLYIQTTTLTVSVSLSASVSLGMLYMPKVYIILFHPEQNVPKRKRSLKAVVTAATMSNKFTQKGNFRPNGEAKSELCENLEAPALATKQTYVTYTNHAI

Row | Structure (SMILES) | IC50 (rat mGluR5) [nM] | further results
1 | Cc1cccc(C#Cc2ccccc2)n1 [MPEP, 2-methyl-6-(phenylethynyl) pyridine] |  | NMDA receptor activity inhibition [1]: directly inhibit; Activity at mGluR4 (mGluR4): positive allosteric modulator; Efficacy in marble burying model (marble burying in mice): effective
2 | Cc1nc(C#Cc2cccnc2)cs1 [MTEP, 3-[(2-methyl-1,3-thiazol-4-yl)ethynyl]pyridine] |  | Inhibition of cytochrome P450 1A2 (cytochrome P450 1A2): potent inhibitor; Clearance [2]: efficiently cleared
3 | Cc1cc(O[C@@H]2CCOC2)cc(C(=O)Nc2nc(C)c(F)s2)n1 | 171 | 
4 | Cc1cc(OC2CSC2)cc(C(=O)Nc2nc(C)cs2)n1 | 31 | 
5 | Cc1cc(OC2CCC2)cc(C(=O)Nc2ccccn2)n1 | 43 | 
6 | Cc1cc(OC2COC2)cc(C(=O)Nc2ccccn2)n1 | 66 | 
7 | Cc1cc(O[C@@H]2CCOC2)cc(C(=O)Nc2nc(C(F)F)cs2)n1 | 247 | 
8 | COC[C@H](C)Oc1cc(C)nc(C(=O)Nc2ccccn2)c1 | 2720 | 
9 | CN1CC(=O)N=C1NC(=O)Nc1cccc(Cl)c1 [fenobam, 1-(3-chlorophenyl)-3-(1-methyl-4-oxo-4,5-dihydro-1H-imidazol-2-yl)urea] |  | Efficacy in marble burying model (marble burying in mice): effective
10 | Cc1cc(OC2CCCOC2)cc(C(=O)Nc2nc(C)cs2)n1 (stereo not shown) | 140 | 
11 | CCCS(=O)(=O)N1CC(Oc2cc(C)nc(C(=O)Nc3nc(C)cs3)c2)C1 | 789 | 
12 | COCCCOc1cc(C)nc(C(=O)Nc2nc(C)cs2)c1 | 506 | 

Second part, led by results:

Row | IC50 (rat mGluR5) [nM] | Structure (SMILES) | further results
13 | 3350 | Cc1cc(OC2CCCCC2)cc(C(=O)Nc2ccc(F)cn2)n1 | 
14 | 1460 | Cc1cc(OCC2CCOCC2)cc(C(=O)Nc2ccccn2)n1 | 
15 | 37 | Cc1cc(OC2CSC2)cc(C(=O)Nc2ccc(F)cn2)n1 | 
16 | 4890 | Cc1cc(OC[C@H]2CCOC2)cc(C(=O)Nc2ccc(F)cn2)n1 | 
17 | 4300 | Cc1cc(OCC2COC2)cc(C(=O)Nc2ccc(F)cn2)n1 | 
18 | 725 | Cc1cc(OCC2CCCO2)cc(C(=O)Nc2ccccn2)n1 (stereo not shown) | 
19 | ≥ 10000 | Cc1cc(OCC2CCCCO2)cc(C(=O)Nc2ccc(F)cn2)n1 (stereo not shown) | 

Source: patent US20170247366A1, “SUBSTITUTED 4-ALKOXYPICOLINAMIDE ANALOGS AS MGLUR5 NEGATIVE ALLOSTERIC MODULATORS AND METHODS OF MAKING AND USING THE SAME” (VANDERBILT UNIVERSITY, priority 2014, published 2017)
